According to patent US20120157439A1, “RAF INHIBITOR COMPOUNDS AND METHODS OF USE THEREOF” (GENENTECH, INC., priority 2009, published 2012):
Where two headings read alike, the source gives them in different places.

Target: T1, V600E full-length B-Raf (Homo sapiens, UniProt P15056, V600E)
T1 construct: 1 μM FSBA-MEK and 20 nM V600E full-length B-Raf; made in house; host or cells: sf9 insect cells (baculovirus)
Experiment: B-Raf IC50 Assay (B-RAF V600E inhibition assay, Example A)
Assay type: biochemical
Description: Determining the activity of Raf in the sample is possible by a number of direct and indirect detection methods (US 2004/0082014). Activity of human recombinant B-Raf protein may be assessed in vitro by assay of the incorporation of radio labeled phosphate to recombinant MAP kinase (MEK), a known physiologic substrate of B-Raf, according to US 2004/0127496 and WO 03/022840. The activity/inhibition of V600E full-length B-Raf was estimated by measuring the incorporation of radio labeled phosphate from [γ-33P]ATP into FSBA-modified wild-type MEK (see Example A).
Activity of human recombinant B-Raf protein may be assessed in vitro by assay of the incorporation of radio labeled phosphate to recombinant MAP kinase (MEK), a known physiologic substrate of B-Raf, according to U.S. Patent Appl. Publication No. 2004/0127496 and WO 03/022840. Catalytically active human recombinant B-Raf protein is obtained by purification from sf9 insect cells infected with a human B-Raf recombinant baculovirus expression vector.
The activity/inhibition of V600E full-length B-Raf was estimated by measuring the incorporation of radio labeled phosphate from [γ-33P]ATP into FSBA-modified wild-type MEK. The […] assay mixtures contained 25 mM Na Pipes, pH 7.2, 100 mM KCl, 10 mM MgCl2, 5 mM β-glycerophosphate, 100 μM Na Vanadate, 4 μM ATP, 500 nCi [γ-33P]ATP, 1 μM FSBA-MEK and 20 nM V600E full-length B-Raf. Incubations were carried out at 22° C. in a Costar 3365 plate (Corning). Prior to the assay, the B-Raf and FSBA-MEK were preincubated together in assay buffer at 1.5× (20 μL of 30 nM and 1.5 μM, respectively) for 15 minutes, and the assay was initiated by the addition of 10 μL of […]. Following the 60-minute incubation, the assay mixtures were quenched by the addition of 100 μL of 25% TCA, the plate was mixed on a rotary shaker for 1 minute, and the product was captured on a Perkin-Elmer GF/B filter plate using a Tomtec Mach III Harvester. After sealing the bottom of the plate, 35 μL of Bio-Safe II (Research Products International) scintillation cocktail were added to each well and the plate was top-sealed and counted in a Topcount NXT (Packard).

[1] = B-Raf V600E assay of Example A: less than 100 nM, read-out: IC50
[2] = B-Raf V600E assay of Example A: less than about 1 μM, read-out: IC50
[3] = incorporation of radio labeled phosphate from [γ-33P]ATP into FSBA-modified wild-type MEK, 4 μM ATP, 20 nM V600E full-length B-Raf, 60-minute incubation, 22° C., read-out: BRAF V600E IC50

T1 sequence (P15056 whole entry V600E): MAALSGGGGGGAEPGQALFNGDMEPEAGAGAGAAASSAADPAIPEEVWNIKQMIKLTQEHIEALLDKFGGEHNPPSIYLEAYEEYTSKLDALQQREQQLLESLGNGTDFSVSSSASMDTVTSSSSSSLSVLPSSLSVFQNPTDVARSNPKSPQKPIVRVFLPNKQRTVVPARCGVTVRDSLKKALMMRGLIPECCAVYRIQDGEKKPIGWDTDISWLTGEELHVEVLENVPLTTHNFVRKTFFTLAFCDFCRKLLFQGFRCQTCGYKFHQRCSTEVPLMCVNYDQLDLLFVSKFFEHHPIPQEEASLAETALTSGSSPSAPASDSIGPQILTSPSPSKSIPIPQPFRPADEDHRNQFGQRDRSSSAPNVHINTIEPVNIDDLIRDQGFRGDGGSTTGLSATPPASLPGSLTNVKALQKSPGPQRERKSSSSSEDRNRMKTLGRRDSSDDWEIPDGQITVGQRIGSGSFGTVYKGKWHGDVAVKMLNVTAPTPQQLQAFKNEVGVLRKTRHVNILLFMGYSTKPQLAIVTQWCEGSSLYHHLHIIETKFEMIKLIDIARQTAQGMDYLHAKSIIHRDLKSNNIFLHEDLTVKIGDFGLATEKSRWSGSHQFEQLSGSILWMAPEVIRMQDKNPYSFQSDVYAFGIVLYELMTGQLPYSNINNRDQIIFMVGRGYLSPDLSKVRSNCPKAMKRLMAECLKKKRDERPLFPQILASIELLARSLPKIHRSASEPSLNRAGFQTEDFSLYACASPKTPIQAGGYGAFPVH

| SMILES | IC50 [1] | IC50 [2] | IC50 [3] |
| --- | --- | --- | --- |
| Nc1ncnc2c(C(=O)Nc3c(F)ccc(NS(=O)(=O)CCCF)c3Cl)csc12 [Example 15, 4-Amino-thieno[3,2-d] pyrimidine-7-carboxylic acid [2-chloro-6-fluoro-3-(3-fluoro-propane-1-sulfonylamino)-phenyl]-amide] | < 100 nM | < 1000 nM | 0.2 nM |
| CCCS(=O)(=O)Nc1cccc(NC(=O)c2csc3c(N)ncnc23)c1F [Example 26, 4-Amino-thieno[3,2-d]pyrimidine-7-carboxylic acid[2-fluoro-3-(propane-1-sulfonylamino)-phenyl]-amide] | < 100 nM | < 1000 nM | 20 nM |
| CCCS(=O)(=O)Nc1cc(F)cc(NC(=O)c2csc3c(N)ncnc23)c1F [Example 20, 4-Amino-thieno[3,2-d] pyrimidine-7-carboxylic acid [2,5-difluoro-3-(propane-1-sulfonyl-amino)-phenyl]-amide] | < 100 nM | < 1000 nM | 5.7 nM |
| CCCNc1ncnc2c(C(=O)Nc3c(F)ccc(NS(=O)(=O)CCC)c3Cl)csc12 [Example 45, 4-Propylamino-thieno[3,2-d]pyrimidine-7-carboxylic acid [2-chloro-6-fluoro-3-(propane-1-sulfonylamino)-phenyl]-amide] | < 100 nM | < 1000 nM | 4.1 nM |
| O=C(Nc1c(Cl)ccc(NS(=O)(=O)CCCF)c1Cl)c1csc2c(NC3CC3)ncnc12 [Example 82, 4-Cyclopropyl-amino-thieno [3,2-d] pyrimidine-7-carboxylic acid [2,6-dichloro-3-(3-fluoro-propane-1-sulfonyl-amino)-phenyl]-amide] | < 100 nM | < 1000 nM | 0.13 nM |
| O=C(Nc1c(Cl)ccc(NS(=O)(=O)CCCF)c1F)c1csc2c(NC3CC3)ncnc12 [Example 84, 4-Cyclopropyl-amino-thieno [3,2-d] pyrimidine-7-carboxylic acid [6-chloro-2-fluoro-3-(3-fluoropropane-1-sulfonyl-amino)-phenyl]-amide] | < 100 nM | < 1000 nM | 0.25 nM |
| CCCS(=O)(=O)Nc1ccc(F)c(NC(=O)c2csc3c(CC)ncnc23)c1F [Example 41, 4-Ethyl-thieno[3,2-d]pyrimidine-7-carboxylic acid [2,6-difluoro-3-(propane-1-sulfonylamino)-phenyl]-amide] |  | < 1000 nM | 112 nM |
| CCCS(=O)(=O)Nc1ccc(F)c(NC(=O)c2snc3c(N)ncnc23)c1F [Example 34, 7-Amino-isothiazolo[4,3-d]pyrimidine-3-carboxylic acid [2,6-difluoro-3-(propane-1-sulfonylamino)-phenyl]-amide] | < 100 nM | < 1000 nM | 5 nM |
| CCCS(=O)(=O)Nc1ccc(F)c(NC(=O)c2csc3c(NOC)ncnc23)c1Cl [Example 37, 4-Methoxyamino-thieno[3,2-d]pyrimidine-7-carboxylic acid [2-chloro-6-fluoro-3-(propane-1-sulfonylamino)-phenyl]-amide] | < 100 nM | < 1000 nM | 9.2 nM |
| Nc1ncnc2c(C(=O)Nc3c(F)ccc(NS(=O)(=O)CCCF)c3F)nsc12 [Example 31, 7-Amino-isothiazolo[4,5-d]pyrimidine-3-carboxylic acid [2,6-difluoro-3-(3-fluoro-propane-1-sulfonylamino)-phenyl]-amide] | < 100 nM | < 1000 nM | 0.82 nM |
| CCCS(=O)(=O)Nc1ccc(F)c(NC(=O)c2c[nH]c3cncnc23)c1F [Example 113, 5H-Pyrrolo[3,2-d] pyrimidine-7-carboxylic acid [2,6-difluoro-3-(propane-1-sulfonylamino)-phenyl]-amide] |  | < 1000 nM | 353 nM |
| Nc1ncnc2c(C(=O)Nc3c(F)ccc(NS(=O)(=O)CC4CC4)c3Cl)csc12 [Example 16, 4-Amino-thieno[3,2-d] pyrimidine-7-carboxylic acid (2-chloro-3-cycloprop-ylmethanesulfonyl-amino-6-fluoro-phenyl)-amide] | < 100 nM | < 1000 nM | 1.9 nM |
| Nc1ncnc2c(C(=O)Nc3c(F)c(F)cc(NS(=O)(=O)CCCF)c3F)csc12 [Example 10, 4-Amino-thieno[3,2-d]pyrimidine-7-carboxylic acid[2,3,6-trifluoro-5-(3-fluoro-propane-1-sulfonylamino)-phenyl]-amide] | < 100 nM | < 1000 nM | 0.72 nM |

Other lines, results leading:

| IC50 [1] | IC50 [2] | IC50 [3] | SMILES |
| --- | --- | --- | --- |
| < 100 nM | < 1000 nM | 0.6 nM | Nc1ncnc2c(C(=O)Nc3c(F)ccc(NS(=O)(=O)CCCF)c3F)csc12 [Example 14, 4-Amino-thieno[3,2-d] pyrimidine-7-carboxylic acid [2,6-difluoro-3-(3-fluoro-propane-1-sulfonylamino)-phenyl]-amide] |
| < 100 nM | < 1000 nM | 9.6 nM | CCCS(=O)(=O)Nc1ccc(Cl)c(NC(=O)c2csc3cncnc23)c1Cl [Example 107, Thieno[3,2-d]pyrimidine-7-carboxylic acid [2,6-dichloro-3-(propane-1-sulfonylamino)-phenyl]-amide] |
| < 100 nM | < 1000 nM | 1.11 nM | Cc1ncnc2c(C(=O)Nc3c(Cl)ccc(NS(=O)(=O)CCCF)c3Cl)csc12 [Example 39, 4-Methyl-thieno[3,2-d]pyrimidine-7-carboxylic acid [2,6-dichloro-3-(3-fluoro-propane-1-sulfonylamino)-phenyl]-amide] |
| < 100 nM | < 1000 nM | 49.6 nM | CCCS(=O)(=O)Nc1ccc(F)c(NC(=O)c2csc3c(NC)ncnc23)c1F [Example 46, 4-Methylamino-thieno[3,2-d]pyrimidine-7-carboxylic acid [2,6-difluoro-3-(propane-1-sulfonylamino)-phenyl]-amide] |
| < 100 nM | < 1000 nM | 1.2 nM | CCCS(=O)(=O)Nc1ccc(Cl)c(NC(=O)c2csc3c(NOC)ncnc23)c1Cl [Example 65, 4-Methoxyamino-thieno[3,2-d]pyrimidine-7-carboxylic acid [2,6-dichloro-3-(propane-1-sulfonylamino)-phenyl]amide] |
| < 100 nM | < 1000 nM | 4.25 nM | CCS(=O)(=O)Nc1ccc(F)c(NC(=O)c2csc3c(N)ncnc23)c1Cl [Example 4, 4-Amino-thieno[3,2-d] pyrimidine-7-carboxylic acid (2-chloro-3-ethane-sulfonylamino-6-fluoro-phenyl)-amide] |
| < 100 nM | < 1000 nM | 0.71 nM | O=C(Nc1c(F)c(F)cc(NS(=O)(=O)CCCF)c1F)c1csc2c(NC3CC3)ncnc12 [Example 97, 4-Cyclopropyl-amino-thieno [3,2-d] pyrimidine-7-carboxylic acid [2,3,6-trifluoro-5-(3-fluoro-propane-1-sulfonyl-amino)-phenyl]-amide] |
| < 100 nM | < 1000 nM | 0.32 nM | CCNc1ncnc2c(C(=O)Nc3c(Cl)ccc(NS(=O)(=O)CCCF)c3Cl)csc12 [Example 83, 4-Ethylamino-thieno[3,2-d] pyrimidine-7-carboxylic acid [2,6-dichloro-3-(3-fluoro-propane-1-sulfonyl-amino)-phenyl]-amide] |
| < 100 nM | < 1000 nM | 1.4 nM | CCCS(=O)(=O)Nc1cc(F)cc(NC(=O)c2csc3c(N)ncnc23)c1Cl [Example 17, 4-Amino-thieno[3,2-d] pyrimidine-7-carboxylic acid [2-chloro-5-fluoro-3-(propane-1-sulfonyl-amino)-phenyl]-amide] |
| < 100 nM | < 1000 nM | 11.4 nM | CCCS(=O)(=O)Nc1ccc(F)c(NC(=O)c2csc3c(NCC)ncnc23)c1F [Example 48, 4-Ethylamino-thieno[3,2-d] pyrimidine-7-carboxylic acid [2,6-difluoro-3-(propane-1-sulfonylamino)-phenyl]-amide] |
|  | < 1000 nM | 189 nM | CCCS(=O)(=O)Nc1ccc(F)c(NC(=O)c2c[nH]c3c(C)ncnc23)c1F [Example 106, 4-Methyl-5H-pyrrolo[3,2-d]pyrimidine-7-carboxylic acid [2,6-difluoro-3-(propane-1-sulfonylamino)-phenyl]-amide] |
